The results in this text go back to patent US5663197A, “2-(1-hydroxyethyl)-5-hydroxynaphtho[2,3-b]furan-4,9-dione and antitumor agents comprising this compound” (priority 1992, dated 1997).

Common to all, as to assay type: cell-based
In assay [1] the test system is Human renal cell carcinoma VMRC-RCW cells. Put plainly: In vitro antitumor test (trypan blue exclusion viable cell count), VMRC-RCW. The method, then: (§1) An appropriate amount of NFD was dissolved in DMSO to give a 1.0 mg/ml stock solution, which was diluted as necessary before use.
(§2) The following cells in the late logarithmic phase were harvested after treatment with trypsin (containing 0.25% trypsin and 0.02% EDTA; 37° C., 3 min) and used in the test: human lung adenocarcinoma cell lines A-549, VMRC-LCD and SK-LU-1, human lung squamous cell carcinoma Calu-1 cells, human colon adenocarcinoma WiDr cells, human prostate cancer LNCaP cells, human vaginal squamous cell carcinoma A-431 cells, human cervical carcinoma HeLa cells, human cholangiocarcinoma HuCC-T1 cells, mouse skin cancer melanoma B16 (M4) cells, human pancreatic carcinoma ASPC-1 cells, human neuroblastoma IMR-132 cells, human lung small cell carcinoma SCCH-194 cells, human uninary bladder carcinoma T24 cells, human renal cell carcinoma […] cells, human gastric cancer NUGC-2 cells, human thyroid carcinoma 8305C cells, human hepatoma HUH-7 cells, human ovarian carcinoma TYK-nu cells and human chorio carcinoma BeWo cells. Suspension cultures of human breast cancer MRK-nu-1 cells, human malignant B-cell lymphoma cells and human chronic myelogenous leukemia K562 cells were used to harvest the cells to be used in the test. […] These cells were plated onto a 96-well microplate at a density of 5-10×10^3 cells/cm^2 using DMEM or RPMI-1640 medium containing 10% fetal bovine serum and cultured for 24 hours in a conventional manner, after which a pre-determined amount of NFD dissolved in DMSO was added to each well. Cultivation was continued, and the number of viable cells was counted after 24, 48 and 72 hours. […]
(§3) Growth inhibitory action and lethal activity of NFD on various types of malignant tumor cells and normal human cells listed above were evaluated by counting the number of viable cells in each well of the 96-well microplate. […]

Assay [2] concerns Human lung adenocarcinoma VMRC-LCD cells. Description: In vitro antitumor test (trypan blue exclusion viable cell count), VMRC-LCD. To be noted: 72 h, three days exposure, read-out: LD50 (IC50), 50% growth-inhibitory dose. The method, then:
as §1
as §2, with “cells.” for “cells. Suspension cultures of human breast cancer MRK-nu-1 cells, human malignant B-cell lymphoma cells and human chronic myelogenous leukemia K562 cells were used to harvest the cells to be used in the test.”, “well.” for “well. Cultivation was continued, and the number of viable cells was counted after 24, 48 and 72 hours.”

Assay [3] deals with Human lung small cell carcinoma SCCH-194 cells. Description: In vitro antitumor test (trypan blue exclusion viable cell count), SCCH-194. Here is the method: as §1
as §2, with “cells.” for “cells. Suspension cultures of human breast cancer MRK-nu-1 cells, human malignant B-cell lymphoma cells and human chronic myelogenous leukemia K562 cells were used to harvest the cells to be used in the test.”, “well.” for “well. Cultivation was continued, and the number of viable cells was counted after 24, 48 and 72 hours.”

The subject of assay [4] is Human thyroid carcinoma 8305C cells. Description: In vitro antitumor test (trypan blue exclusion viable cell count), 8305C. The method, then:
as §1
as §2, with “cells.” for “cells. Suspension cultures of human breast cancer MRK-nu-1 cells, human malignant B-cell lymphoma cells and human chronic myelogenous leukemia K562 cells were used to harvest the cells to be used in the test.”, “well.” for “well. Cultivation was continued, and the number of viable cells was counted after 24, 48 and 72 hours.”

Assay [5] relates to Human chorio carcinoma BeWo cells. Put plainly: In vitro antitumor test (trypan blue exclusion viable cell count), BeWo. The method, then: as §1
as §2, with “cells.” for “cells. Suspension cultures of human breast cancer MRK-nu-1 cells, human malignant B-cell lymphoma cells and human chronic myelogenous leukemia K562 cells were used to harvest the cells to be used in the test.”, “well.” for “well. Cultivation was continued, and the number of viable cells was counted after 24, 48 and 72 hours.”

In assay [6] the test system is Human breast cancer MRK-nu-1 cells. Description: In vitro antitumor test (trypan blue exclusion viable cell count), MRK-nu-1. Here is the method: as §1
as §2, with “cells.” for “cells. Suspension cultures of human breast cancer MRK-nu-1 cells, human malignant B-cell lymphoma cells and human chronic myelogenous leukemia K562 cells were used to harvest the cells to be used in the test.”, “well.” for “well. Cultivation was continued, and the number of viable cells was counted after 24, 48 and 72 hours.”

Assay [7] relates to Human chronic myelogenous leukemia K562 cells. Put plainly: In vitro antitumor test (trypan blue exclusion viable cell count), K562. To be noted: 72 h, three days exposure, read-out: LD50 (IC50), 50% growth-inhibitory dose. The method, then: as §1
as §2, with “cells.” for “cells. Suspension cultures of human breast cancer MRK-nu-1 cells, human malignant B-cell lymphoma cells and human chronic myelogenous leukemia K562 cells were used to harvest the cells to be used in the test.”, “well.” for “well. Cultivation was continued, and the number of viable cells was counted after 24, 48 and 72 hours.”

Assay [8] has as its system Human colon adenocarcinoma WiDr cells. Put plainly: In vitro antitumor test (trypan blue exclusion viable cell count), WiDr. The method, then:
as §1, §2, §3

The test system of assay [9] is Human cholangiocarcinoma HuCC-T1 cells. Put plainly: In vitro antitumor test (trypan blue exclusion viable cell count), HuCC-T1. Here is the method: as §1
as §2, with “cells.” for “cells. Suspension cultures of human breast cancer MRK-nu-1 cells, human malignant B-cell lymphoma cells and human chronic myelogenous leukemia K562 cells were used to harvest the cells to be used in the test.”, “well.” for “well. Cultivation was continued, and the number of viable cells was counted after 24, 48 and 72 hours.”

Setting [10] is: 72 h, three days exposure, read-out: LD50 (IC50), 50% growth-inhibitory dose.

≈ marks a conversion by molar mass, not a printed value.

In the case of `CC(O)c1cc2c(o1)C(=O)c1cccc(O)c1C2=O` (stereo not drawn) [NFD, 2-(1-hydroxyethyl)-5-hydroxynaphtho[2,3-b]furan-4,9-dione], the “concentration causing necrosis in almost all tumor cells” value is 50 ng/mL in assay [1] (FIG. 17) and 44.7 to 55.9 ng/mL in assay [8] (FIG. 5). Also, the IC50 in [1] (Homo sapiens, 72 h, VMRC-RCW, three days exposure, read-out: LD50 (IC50), 50% growth-inhibitory dose) is 0.019 µg/mL (≈ 0.0736 µM); in assay [2], 0.013 µg/mL (≈ 0.0503 µM); in assay [3] (72 h, SCCH-194, three days exposure, read-out: LD50 (IC50), 50% growth-inhibitory dose), 0.01 µg/mL (≈ 0.0387 µM); in assay [4] (setting [10]), 0.025 µg/mL (≈ 0.0968 µM); in [5] (setting [10]), 0.018 µg/mL (≈ 0.0697 µM); in assay [6] (setting [10]), 0.012 µg/mL (≈ 0.0465 µM). For the same molecule, the IC50 in assay [7] came out at 0.014 µg/mL (≈ 0.0542 µM); in [8] (Homo sapiens, 72 h, WiDr, three days exposure, read-out: LD50 (IC50), 50% growth-inhibitory dose), 0.011 µg/mL (≈ 0.0426 µM); in assay [9] (HuCCT-1, 72 h, HuCC-T1, three days exposure, read-out: LD50 (IC50), 50% growth-inhibitory dose) it was 0.02 µg/mL (≈ 0.0775 µM). Besides, the IC (almost complete) in [1] (Homo sapiens, FIG. 17, read-out: concentration inhibiting growth almost completely) was 0.017 µg/mL; in [3] (FIG. 15, read-out: concentration inhibiting growth almost completely), 0.03 µg/mL; in assay [4] (FIG. 19, read-out: concentration inhibiting growth almost completely) it was 0.028 µg/mL; in [5] (FIG. 23, read-out: concentration inhibiting growth almost completely) it was 0.0343 µg/mL; in [6] (FIG. 20, read-out: concentration inhibiting growth almost completely), 0.033 µg/mL; in assay [8] (Homo sapiens, WiDr, FIG. 5, read-out: concentration inhibiting growth almost completely) it was 0.0224 to 0.0335 µg/mL. In addition, in assay [9] (HuCCT-1, FIG. 9, read-out: concentration inhibiting growth almost completely), the IC (almost complete) was found to be 0.0224 µg/mL.

Broadly, the IC50 is the point on the concentration scale where inhibition reaches its midpoint.
